Measured values from patent US8703104B2, “Use of metal astringents for the treatment of hairy heel warts” (Ecolab USA Inc, priority 2007, dated 2014).
Like-named read-outs stand apart in the source and are kept apart here.

Tested on: hairy heel wart lesions on the cows
[1] = Day 0, prior to first treatment
[2] = Grading Period 1 (Day 0), one day prior to first treatment

SMILES: O=S(=O)([O-])[O-].[Cu+2] [CuSO4, copper sulfate]
- Lesion Appearance Score Distribution: number of cows with Grade Score 4 (Dead lesion) [1]: 1
- Lesion Pain Score Distribution: number of cows with Grade Score 1 (Minor pain) [1]: 10
- Lesion Size Score Distribution: number of cows with Grade Score 1 (Dime Size) [1]: 6
- Lesion Size Score Distribution: number of cows with Grade Score 2 (Quarter Size) [1]: 5
- Locomotion Score Distribution: number of cows with Grade Score 1 (Stands and walks normal) [1]: 5
- Lesion Appearance Score Distribution: number of cows with Grade Score 4 (Dead lesion) (Day 5): 5
- Lesion Pain Score Distribution: number of cows with Grade Score 1 (Minor pain) (Day 5): 6
- Lesion Size Score Distribution: number of cows with Grade Score 1 (Dime Size) (Day 5): 4
- Lesion Size Score Distribution: number of cows with Grade Score 2 (Quarter Size) (Day 5): 4
- Locomotion Score Distribution: number of cows with Grade Score 1 (Stands and walks normal) (Day 5): 3
- Lesion Appearance Score Distribution: number of cows with Grade Score 4 (Dead lesion) (Day 10): 6
- Lesion Pain Score Distribution: number of cows with Grade Score 1 (Minor pain) (Day 10): 9
- Lesion Size Score Distribution: number of cows with Grade Score 1 (Dime Size) (Day 10): 10
- Lesion Size Score Distribution: number of cows with Grade Score 2 (Quarter Size) (Day 10): 1
- Locomotion Score Distribution: number of cows with Grade Score 1 (Stands and walks normal) (Day 10): 3
- Lesion Appearance Score Distribution: number of cows with Grade Score 4 (Dead lesion) (Day 14): 5
- Lesion Pain Score Distribution: number of cows with Grade Score 1 (Minor pain) (Day 14): 5
- Lesion Size Score Distribution: number of cows with Grade Score 1 (Dime Size) (Day 14): 4
- Lesion Size Score Distribution: number of cows with Grade Score 2 (Quarter Size) (Day 14): 6
- Locomotion Score Distribution: number of cows with Grade Score 1 (Stands and walks normal) (Day 14): 8
- Lesion Appearance Score Distribution: number of cows with Grade Score 4 (Dead lesion) (Day 19): 3
- Lesion Pain Score Distribution: number of cows with Grade Score 1 (Minor pain) (Day 19): 5
- Lesion Size Score Distribution: number of cows with Grade Score 1 (Dime Size) (Day 19): 8
- Lesion Size Score Distribution: number of cows with Grade Score 2 (Quarter Size) (Day 19): 3
- Locomotion Score Distribution: number of cows with Grade Score 1 (Stands and walks normal) (Day 19): 8
- Average lesion color score (scale 0 to 5) [2]: 1.64
- Average lesion pain score (scale 0 to 2) [2]: 1.09
- Average locomotion score (scale 1-5) [2]: 1.82
- Average lesion color score (scale 0 to 5) (Grading Period 2 (Day 5)): 2.20
- Average lesion pain score (scale 0 to 2) (Grading Period 2 (Day 5)): 0.60
- Average lesion size score (scale 0 to 3) (Grading Period 2 (Day 5)): 1.80
- Average locomotion score (scale 1-5) (Grading Period 2 (Day 5)): 1.90
- Average lesion color score (scale 0 to 5) (Grading Period 3 (Day 10)): 2.45
- Average lesion pain score (scale 0 to 2) (Grading Period 3 (Day 10)): 1.00
- Average lesion size score (scale 0 to 3) (Grading Period 3 (Day 10)): 1.09
- Average locomotion score (scale 1-5) (Grading Period 3 (Day 10)): 1.82
- Average lesion color score (scale 0 to 5) (Grading Period 4 (Day 14)): 3.10
- Average lesion pain score (scale 0 to 2) (Grading Period 4 (Day 14)): 0.50
- Average lesion size score (scale 0 to 3) (Grading Period 4 (Day 14)): 1.60
- Average locomotion score (scale 1-5) (Grading Period 4 (Day 14)): 1.20
- Average lesion pain score (scale 0 to 2) (Grading Period 5 (Day 19)): 0.45
- Average lesion size score (scale 0 to 3) (Grading Period 5 (Day 19)): 1.27
- Average locomotion score (scale 1-5) (Grading Period 5 (Day 19)): 1.55
